Values joined by “and” are separate entries in the source; they are usually repeats but may differ in a detail not shown here. Equal values may be shown once. Read-outs that look alike come from different tables or passages of the source.
What was measured:
Type in all cases: in vivo
Amblyomma americanum = test: Control of adult ticks on rabbits, Table II; details: for mortality at 0.05 % / mortality at 0.2 % / mortality at 0.4 %: Amblyomma americanum, topical, 96 h, 4 days after treatment
Experimental: The midsection of each host rabbit is clipped, and a rubber capsule is cemented to the clipped portion of the skin. After a 24-hour drying period, the 10 ticks are placed in the capsule and allowed to attack the host for 72 hours. On the day of treatment, each capsule is sprayed with 2-3 cc. of the test compound, O,O,O',O'-tetramethyl O,O'-thiodi-p-phenylene phosphorothioate. Sufficient rabbits were used to test at concentrations of 0.05%, 0.20% and 0.40% (w/w), respectively.
Mortality was noted 4 days after treatment. On those rabbits where female ticks survived, five untreated male ticks were introduced and the ticks allowed to mate. Fully engorged females were then removed from the capsule and placed in petri dishes for oviposition. Effect of fecundity is then determined by comparing the percent of eggs laid and the percent of eggs which hatch in the treated versus the controls.

Ctenocephalides felis [1] = test: Flea control on dogs fed medicated diet, Table IV; design: key: 100% Control; PC: Partial Control; NC: No Control
Experimental: Five groups of two mongrel dogs each were fed a daily dose of 0, 6.25, 25, 100 or 400 mg. O,O,O',O'-tetramethyl O,O'-thiodi-p-phenylene phosphorothioate/kg. body weight in Agway Big Red Dog Meal. Dogs eating less than 75% of the food were given a corrected dose by gelatin capsule to equal 100%. Medication began 1 day after infesting each dog with 100 adult Ctenocephalides felis and 2 days before infesting each dog with 10 Dermacentor variabiles and 10 Rhipicephalus sanguineus adults.

Ctenocephalides felis [2] = test: 2% powder against experimental flea infestations on cats; details: 60 mg/kg as 2% powder
Experimental: An experiment was conducted using O,O,O',O'-tetramethyl O,O'-thiodi-p-phenylene phosphorothioate which was prepared from a 25% concentrate diluted with talc so the final powder was 2% drug. Prior to the start of the test 23 cats were classified according to sex, age, hair length and color and divided into five groups. One of these groups was then randomly selected to be the controls and the other groups were assigned for treatment in a random order. The amount of 2% drug dust applied to each cat was calculated prior to treatment to give a dose rate of 60 mg. drug/kg. The duster was weighed before treating each cat and at intervals during dusting to get as near the desired dose as possible. […] Table VII summarizes the results obtained up to 48 days after treatment.

Ctenocephalides felis [3] = test: 2% powder for control of flea infestations on dogs; details: for Percent of Dogs with Control / Number of Dogs on Which Fleas were Controlled: 20 mg/kg 2% powder; for Average Dead in Treated / No. of Dead Fleas Recovered in 48 Hrs.: 20 mg/kg; for No. of Dead Fleas Recovered in 48 Hrs.: Trial 1, individual dogs
Experimental: An experiment was carried out to determine the activity of O,O,O',O'-tetramethyl O,O'-thiodi-p-phenylene phosphorothioate 2% powder for the control of Ctenocephalides felis infestations on dogs. A group of 40 dogs of mixed breeds were obtained from a licensed laboratory animal dealer and housed in individual cages. The 2% powder was formulated from a 25% dust concentrate containing […] O,O,O',O'-tetramethyl O,O'-thiodi-p-phenylene phosphorothioate, 24% celite 209 and 50% acidic kaolin. Talc was used to dilute the concentrate to 2% active ingredient. Each dog was infested with 100 1 day old adult C. felis 72 hours prior to treatment and reinfested on a weekly basis for 6 weeks beginning 7 days after treatment. Each dog was treated with 20 mg. actual drug per kg. body weight formulated as a 2% powder. Five or more dogs were treated with a blank powder and used as infested controls. Table XV summarizes average dead fleas in treated versus average dead fleas in control.

COP(=S)(OC)Oc1ccc(Sc2ccc(OP(=S)(OC)OC)cc2)cc1 [O,O,O',O'-tetramethyl O,O'-thiodi-p-phenylene phosphorothioate]
Eggs Hatched (%) (Amblyomma americanum; 0.05% (w/w)): 90%
Eggs Hatched (%) (Amblyomma americanum; 0.20% (w/w)): 50%
Control of ticks (Amblyomma americanum; 0.20% and 0.40% (w/w)): effectively controls amblyomma ticks by killing the adult males and some females and rendering the female ova non-viable
Eggs Hatched (%) (Amblyomma americanum; 0.40% (w/w)): 1%
mortality at 0.05 % (Amblyomma americanum; 0.05% (w/w), read-out: Deaths (%) Females): 10%
mortality at 0.05 % (Amblyomma americanum; 0.05% (w/w), read-out: Deaths (%) Males): 70%
mortality at 0.2 % (Amblyomma americanum; 0.20% (w/w), read-out: Deaths (%) Females): 40%
mortality at 0.2 % (Amblyomma americanum; 0.20% (w/w), read-out: Deaths (%) Males): 100%
mortality at 0.4 % (Amblyomma americanum; 0.40% (w/w), read-out: Deaths (%) Females): 50%
mortality at 0.4 % (Amblyomma americanum; 0.40% (w/w), read-out: Deaths (%) Males): 100%
Flea Control (Ctenocephalides felis [1]; 6.25 mg/kg in feed, 1 dog, after 3 days): complete flea control
Flea Control (Ctenocephalides felis [1]; 6.25 mg/kg in feed, other dog, after 4 days): complete flea control
Flea Control (Ctenocephalides felis [1]; 400, 100 or 25 mg/kg in feed, all dogs, after 48 hours): Complete flea control
Flea Control (Ctenocephalides felis [1]; in feed 6.25 mg/kg daily, day 2): NC and PC
Flea Control (Ctenocephalides felis [1]; in feed 6.25 mg/kg daily, day 4): 100 (100% Control)
Flea Control (Ctenocephalides felis [1]; in feed 25 mg/kg daily, day 2): 100 (100% Control)
Flea Control (Ctenocephalides felis [1]; in feed 100 mg/kg daily, day 2): 100 (100% Control)
Flea Control (Ctenocephalides felis [1]; in feed 400 mg/kg daily, day 2): 100 (100% Control)
control (Ctenocephalides felis [2]; fifth week): 64%
residual control against C. felis on cats (Ctenocephalides felis [2]; for four weeks): excellent residual control
control (Ctenocephalides felis [2]; for three weeks): 100%
control (Ctenocephalides felis [2]; fourth week): 90%
control (Ctenocephalides felis [2]; sixth week): 40%
Percent of Dogs with Control (Ctenocephalides felis [3]; week 0): 100%
Percent of Dogs with Control (Ctenocephalides felis [3]; week 1): 100%
Percent of Dogs with Control (Ctenocephalides felis [3]; week 2): 100%
Percent of Dogs with Control (Ctenocephalides felis [3]; week 3): 100%
Percent of Dogs with Control (Ctenocephalides felis [3]; week 4): 92.5%
Percent of Dogs with Control (Ctenocephalides felis [3]; week 5): 80%
Percent of Dogs with Control (Ctenocephalides felis [3]; week 6): 45%
Number of Dogs on Which Fleas were Controlled (Ctenocephalides felis [3]; Combination of Test 1 & 2, week 0, of 40): 40 dogs
Number of Dogs on Which Fleas were Controlled (Ctenocephalides felis [3]; Combination of Test 1 & 2, week 1, of 40): 40 dogs
Number of Dogs on Which Fleas were Controlled (Ctenocephalides felis [3]; Combination of Test 1 & 2, week 2, of 40): 40 dogs
Number of Dogs on Which Fleas were Controlled (Ctenocephalides felis [3]; Combination of Test 1 & 2, week 3, of 40): 40 dogs
Number of Dogs on Which Fleas were Controlled (Ctenocephalides felis [3]; Combination of Test 1 & 2, week 4, of 40): 37 dogs
Number of Dogs on Which Fleas were Controlled (Ctenocephalides felis [3]; Combination of Test 1 & 2, week 5, of 40): 32 dogs
Number of Dogs on Which Fleas were Controlled (Ctenocephalides felis [3]; Combination of Test 1 & 2, week 6, of 40): 18 dogs
Number of Dogs on Which Fleas were Controlled (Ctenocephalides felis [3]; Experiment 1, week 0, of 20): 20 dogs
Number of Dogs on Which Fleas were Controlled (Ctenocephalides felis [3]; Experiment 1, week 1, of 20): 20 dogs
Number of Dogs on Which Fleas were Controlled (Ctenocephalides felis [3]; Experiment 1, week 2, of 20): 20 dogs
Number of Dogs on Which Fleas were Controlled (Ctenocephalides felis [3]; Experiment 1, week 3, of 20): 20 dogs
Number of Dogs on Which Fleas were Controlled (Ctenocephalides felis [3]; Experiment 1, week 4, of 20): 17 dogs
Number of Dogs on Which Fleas were Controlled (Ctenocephalides felis [3]; Experiment 1, week 5, of 20): 14 dogs
Number of Dogs on Which Fleas were Controlled (Ctenocephalides felis [3]; Experiment 1, week 6, of 20): 5 dogs
Number of Dogs on Which Fleas were Controlled (Ctenocephalides felis [3]; Experiment 2, week 0, of 20): 20 dogs
Number of Dogs on Which Fleas were Controlled (Ctenocephalides felis [3]; Experiment 2, week 1, of 20): 20 dogs
Number of Dogs on Which Fleas were Controlled (Ctenocephalides felis [3]; Experiment 2, week 2, of 20): 20 dogs
Number of Dogs on Which Fleas were Controlled (Ctenocephalides felis [3]; Experiment 2, week 3, of 20): 20 dogs
Number of Dogs on Which Fleas were Controlled (Ctenocephalides felis [3]; Experiment 2, week 4, of 20): 20 dogs
Number of Dogs on Which Fleas were Controlled (Ctenocephalides felis [3]; Experiment 2, week 5, of 20): 18 dogs
Number of Dogs on Which Fleas were Controlled (Ctenocephalides felis [3]; Experiment 2, week 6, of 20): 13 dogs
Average Dead in Treated (Ctenocephalides felis [3]; Test 1, week 0, control 6.2): 31.5
Average Dead in Treated (Ctenocephalides felis [3]; Test 1, week 2, control 4.8): 40.4
Average Dead in Treated (Ctenocephalides felis [3]; Test 1, week 6, control 3.2): 18.0
Average Dead in Treated (Ctenocephalides felis [3]; Test 2, week 0, control 11.8): 43.5
No. of Dead Fleas Recovered in 48 Hrs. (Ctenocephalides felis [3]; week 0): 18 and 44 and 41 and 34 and 26 and 38 and 28 and 50 and 21 and 22 and 40 and 24 and 25
No. of Dead Fleas Recovered in 48 Hrs. (Ctenocephalides felis [3]; week 1): 30 and 44 and 53 and 43 and 14 and 37 and 26 and 74 and 49 and 57 and 33 and 31 and 38
No. of Dead Fleas Recovered in 48 Hrs. (Ctenocephalides felis [3]; week 2): 54 and 39 and 55 and 40 and 27 and 64 and 31 and 44 and 38 and 32 and 43 and 50 and 42
No. of Dead Fleas Recovered in 48 Hrs. (Ctenocephalides felis [3]; week 3): 37 and 36 and 47 and 43 and 35 and 42 and 33 and 63 and 44 and 60 and 29
No. of Dead Fleas Recovered in 48 Hrs. (Ctenocephalides felis [3]; week 4): 43 and 46 and 48 and 25 and 8 and 21 and 35 and 61 and 24 and 34 and 6 and 26 and 42
No. of Dead Fleas Recovered in 48 Hrs. (Ctenocephalides felis [3]; week 5): 35 and 63 and 48 and 16 and 5 and 21 and 11 and 36 and 14 and 46 and 39
No. of Dead Fleas Recovered in 48 Hrs. (Ctenocephalides felis [3]; week 6): 5 and 49 and 63 and 10 and 3 and 1 and 23 and 19 and 6 and 7 and 27 and 35

Reference: patent publication US3968207A, “Method of controlling fleas and ticks on cats and dogs” (priority 1975, dated 1976)
